# Experimental data taken from patent US20240024403A1, “Compositions and Methods for Managing Weight” (Unigen, Inc., priority 2012, published 2024).
# Assay: High fat diet induced obesity (DIO) mouse model
# Format: in vivo, C57CL/6J mice
# Design: Epididymal Fat weight / Retroperitoneal Fat weight / Total Fat (sum of the three fat deposits) / Retroperitoneal Fat / Total Fat / Epididymal Fat, absolute weight / Retroperitoneal Fat, absolute weight: unit not given here
# Conditions: DIO mice; for Hepatocellular ballooning (0-2) / Lobular Inflammation (0-3) / NSAH (sum) / Steatosis (0-3): liver pathology score
# Description: C57CL/6J mice aged 4-6 weeks (Korea Research Institute of Bioscience & Biotechnology, Ohchang, Korea) were housed in Polycarbonate cages (five mice per cage) in a room with a 12 hr:12 hr light-dark cycle and an ambient temperature of 24° C. All the mice were fed a commercial chow diet for 1 week after arrival in the animal facility. Mice were then divided into normal and obesity groups and fed with normal diet (ND) and high fat diets (HFD) respectively. The HFD group was divided into multiple treatment groups: a high fat diet vehicle group (HFD), an orlistat (purchased as OTC drug Alli®) positive control treatment group (ORI, 40 mg/kg of animal weight, 2 times/day) and optionally a sibutramine positive control treatment group (10 mg/kg, 1 time/day). The HFD contained 340 g of fat/kg of HFD (310 g lard plus 30 g soybean oil; Harlan Laboratories, USA). The HFD was formulated to provide 60% of the total energy generated by the diet from fat by replacing carbohydrate energy with lard and soybean oil, whereas the normal diet (ND) group was fed a diet providing only 18% of the total diet energy from fat(Harlan Laboratories, USA).
# Body weight was measured once each week and feed intake was measured twice per week. At the end of the experimental period, following a 12 hr. fasting period, the animals were anesthetized with ether, and blood was drawn from the abdominal vein. Liver and kidney and adipose tissues (epididymal, retroperitoneal, perirenal adipose tissues) were removed from each animal, rinsed with physiological saline, and weighed. Serum concentrations of glucose, total cholesterol, triglycerides, and LDL-cholesterol were determined using automatic analyzer (INTEGRA 400, Roche, Germany). Statistical significance of test results was measured using the Student's t-test.
# [1] = G1-G4 1000 mg/kg oral gavage two times per day
# [2] = G1-G4 1000 mg/kg oral gavage two times per day, in g (unit assumed)
# [3] = G1 = 800 mg/kg orally twice a day
# [4] = G1 = 1,100 mg/kg orally twice a day
# [5] = G1 = 1,200 mg/kg orally twice a day
# [6] = Mean score, G1 1,300 mg/kg twice a day
# [7] = Mean, Composition 11 (G1) 1,300 mg/kg twice a day, oral
# [8] = Mean, G1 1,300 mg/kg twice a day
# [9] = SIB 10 mg/kg, ORI 40 mg/kg, Mutamba extract 32 (G1) 1000 mg/kg, mean
# [10] = SIB 10 mg/kg, ORI 40 mg/kg, Mutamba extract 33-2 G1 1000 mg/kg, mean
# [11] = combination (1:1) 2000 mg/kg twice a day, group mean
# [12] = combination (5:1) 1200 mg/kg twice a day by gavage, group mean
# [13] = combination (5:1) 1200 mg/kg twice a day, biochemistry parameters, Table 85, first print
# [14] = combination (5:1) 1200 mg/kg twice a day, biochemistry parameters, Table 85, second print
# [15] = combination (10:1) 1100 mg/kg twice a day, biochemistry parameter
# [16] = combination (10:1) 1100 mg/kg twice a day, group mean
# [17] = plasma, Mean, G1 1,300 mg/kg twice a day
smiles,measurement,setting,value
"CCCCCCCCCCC[C@@H](C[C@@H]1OC(=O)[C@H]1CCCCCC)OC(=O)[C@H](CC(C)C)NC=O [ORI, orlistat]",Food Intake,[1],2.675 g/day
same,Weight Gain,[1],0.015 g/day
same,"Absolute Organ Weight, Epididymal Fat",[2],1.998
same,"Absolute Organ Weight, Liver",[2],1.184
same,ALP,[3],177.35 U/L
same,ALT,[3],23.03 U/L
same,AST,[3],51.40 U/L
same,Absolute Organ Weight: Epididymal fat,[3],2.03 g
same,Absolute Organ Weight: Liver,[3],1.19 g
same,Absolute Organ Weight: PeriRenal fat,[3],0.29 g
same,Absolute Organ Weight: Retroperitoneal fat,[3],0.5 g
same,Body Weight Gain,[3],-0.004 g/day
same,Food Intake,[3],3.147 g/day
same,LDL-C,[3],4.28 mg/dL
same,T-chol,[3],155.83 mg/dL
same,TG,[3],88.33 mg/dL
same,TP,[3],5.08 g/dL
same,ALT,[4],23.03 U/L
same,AST,[4],51.40 U/L
same,Absolute Organ Weight: Epididymal Fat,[4],2.03 g
same,Absolute Organ Weight: Liver,[4],1.19 g
same,Absolute Organ Weight: PeriRenal Fat,[4],0.29 g
same,Absolute Organ Weight: Retroperitoneal Fat,[4],0.5 g
same,Body Weight Gain,[4],-0.004 g/day
same,Food Intake,[4],3.147 g/day
same,LDL-C,[4],4.28 mg/dL
same,T-chol,[4],155.83 mg/dL
same,TG,[4],88.33 mg/dL
same,TP,[4],5.08 g/dL
same,ALT,[5],23.03 U/L
same,AST,[5],51.40 U/L
same,Absolute Organ Weight: Epididymal Fat,[5],2.03 g
same,Absolute Organ Weight: Liver,[5],1.19 g
same,Absolute Organ Weight: PeriRenal Fat,[5],0.29 g
same,Absolute Organ Weight: Retroperitoneal Fat,[5],0.5 g
same,Food Intake,[5],3.147 g/day
same,LDL-C,[5],4.28 mg/dL
same,T-chol,[5],155.83 mg/dL
same,TG,[5],88.33 mg/dL
same,TP,[5],5.08 g/dL
same,Weight Gain,[5],-0.004 g/day
same,Liver pathology: Hepatocellular ballooning (0-2),[6],0.33
same,Liver pathology: Lobular Inflammation (0-3),[6],1.50
same,Liver pathology: Steatosis (0-3),[6],0.33
same,Body Weight Gain,[7],-0.004 g/day
same,Food Intake,[7],3.147 g/day
same,ALP,[8],177.35 U/L
same,ALT,[8],23.03 U/L
same,AST,[8],51.40 U/L
same,Absolute Organ Weight: Epididymal Fat,[8],2.03 g
same,Absolute Organ Weight: Liver,[8],1.19 g
same,Absolute Organ Weight: PeriRenal Fat,[8],0.29 g
same,Absolute Organ Weight: Retroperitoneal Fat,[8],0.5 g
same,HDL-C,[8],75.57 mg/dL
same,LDL-C,[8],4.28 mg/dL
same,TP,[8],5.08 g/dL
same,FER (Food efficiency ratio),"Mean, body weight gain (g/day)/food intake (g/day), G1 1,300 mg/kg twice a day",−0.001
same,Liver pathology: NSAH (sum),"Mean, sum of scores, G1 1,300 mg/kg twice a day",2.17
same,Absolute organ weight: Total Fat,"Mean, sum of the three fat pads, G1 1,300 mg/kg twice a day",2.82 g
same,FER (Food efficiency ratio),"ORI group, mean, Table 136",0.000
same,Food Intake,"ORI group, mean, Table 136",3.195 g/day
same,Weight Gain,"ORI group, mean, Table 136",0.000 g/day
same,ALT,"ORI group, mean, Table 137",21.83 U/L
same,AST,"ORI group, mean, Table 137",65.65 U/L
same,Glu,"ORI group, mean, Table 137",194.00 mg/dL
same,HDL-C,"ORI group, mean, Table 137",62.42 mg/dL
same,LDL-C,"ORI group, mean, Table 137",4.03 mg/dL
same,T-chol,"ORI group, mean, Table 137",137.33 mg/dL
same,TG,"ORI group, mean, Table 137",27.83 mg/dL
same,"Epididymal Fat, absolute weight","ORI group, mean, Table 138",2.08
same,"Liver, absolute organ weight","ORI group, mean, Table 138",0.99 g
same,"Perirenal Fat, absolute weight","ORI group, mean, Table 138",0.28
same,"Retroperitoneal Fat, absolute weight","ORI group, mean, Table 138",0.57
same,Total Fat (sum of the three fat pads),"ORI group, mean, Table 138",2.94
same,Average Body Weight Gain,[9],0.038 g/day
same,Average Food Intake,[9],2.826 g/day
same,Body Weight Gain,[10],0.093 g/day
same,Food Intake,[10],2.769 g/day
same,FER (Food efficiency ratio),"combination (1:1) 2000 mg/kg twice a day, FER = body weight gain/food intake",0.000
same,Food Intake,[11],3.961 g/day
same,Weight Gain,[11],-0.002 g/day
same,FER (Food efficiency ratio),"combination (5:1) 1200 mg/kg twice a day by gavage, FER = body weight gain/food intake",0.000
same,Food Intake,[12],3.961 g/day
same,Weight Gain,[12],-0.002 g/day
same,Glu,[13],225.50 mg/dL
same,LDL-C,[13],3.30 mg/dL
same,T-chol,[13],134.00 mg/dL
same,TG,[13],62.50 mg/dL
same,Glu,[14],225.50 mg/dL
same,LDL-C,[14],3.30 mg/dL
same,T-chol,[14],134.00 mg/dL
same,TG,[14],62.50 mg/dL
same,FER (Food efficiency ratio),"combination (10:1) 1100 mg/kg twice a day, FER = body weight gain/food intake",0.000
same,Glu,[15],225.50 mg/dL
same,T-chol,[15],134.00 mg/dL
same,TG,[15],62.50 mg/dL
same,Food Intake,[16],3.961 g/day
same,Weight Gain,[16],-0.002 g/day
same,Hepatocellular ballooning (0-2),"ORI group, mean, Table 139",0.67
same,Lobular Inflammation (0-3),"ORI group, mean, Table 139",1.33
same,NSAH (sum),"ORI group, mean, Table 139",2.67
same,Steatosis (0-3),"ORI group, mean, Table 139",0.67
same,Hepatocellular ballooning (0-2),"mean, Table 133",0.33
same,Lobular Inflammation (0-3),"mean, Table 133",1.50
same,NSAH (sum),"mean, Table 133",2.17
same,Steatosis (0-3),"mean, Table 133",0.33
same,Glu,[17],269.17 mg/dL
same,T-chol,[17],156 mg/dL
same,TG,[17],88.3 mg/dL
same,"Absolute Organ Weight, Total Fat","sum of the three fat pads (epididymal, retroperitoneal, perirenal), in g (unit assumed)",2.952
same,Total Fat,"sum of the three fat pads, G1 = 800 mg/kg orally twice a day",2.82
same,Total Fat,"sum of the three fat pads, G1 = 1,100 mg/kg orally twice a day",2.82
same,Total Fat,"sum of the three fat pads, G1 = 1,200 mg/kg orally twice a day",2.82
same,Total Weight,"week 0, G1 = 800 mg/kg orally twice a day, in g (unit assumed)",40.22
same,Total Weight,"week 0, G1 = 1,100 mg/kg orally twice a day, in g (unit assumed)",40.22
same,Total Body Weight,"week 0, G1 = 1,200 mg/kg orally twice a day, in g (unit assumed)",40.22
same,Total Weight,"week 0, ORI group, mean, Table 134, in g (unit assumed)",38.61
same,Total Body Weight,"week 0, ORI group, mean, Table 145, in g (unit assumed)",40.22
same,Weight Gain,"week 1, G1 = 800 mg/kg orally twice a day",−2.24
same,Total Weight,"week 1, G1 = 800 mg/kg orally twice a day, in g (unit assumed)",37.98
same,Weight Gain,"week 1, G1 = 1,100 mg/kg orally twice a day",−2.24
same,Total Weight,"week 1, G1 = 1,100 mg/kg orally twice a day, in g (unit assumed)",37.98
same,Weight Gain,"week 1, G1 = 1,200 mg/kg orally twice a day",−2.24
same,Total Body Weight,"week 1, G1 = 1,200 mg/kg orally twice a day, in g (unit assumed)",37.98
same,Total Weight,"week 1, ORI group, mean, Table 134, in g (unit assumed)",33.17
same,Weight Gain,"week 1, ORI group, mean, Table 135",−5.43
same,Total Body Weight,"week 1, ORI group, mean, Table 145, in g (unit assumed)",37.98
same,Weight Gain,"week 1, ORI group, mean, Table 146",−2.24
same,Weight Gain,"week 2, G1 = 800 mg/kg orally twice a day",−6.14
